Data published in patent US20040259909A1, “Treatment of fibromyalgia syndrome” (priority 2001, published 2004).
Read-outs that look alike come from different tables or passages of the source.

What was measured:
[1] = Animal models of memory and cognition; settings: in vivo
Excerpt: In a first embodiment of the invention a suitable α7 agonist is spiro[1-azabicyclo[2.2.2]octane-3,5′-oxazolidine-2′-one (Compound 1, Table 1). […] This compound is disclosed in U.S. Pat. No. 5,902,814 the disclosure of which is incorporated herein in its entirety by reference. This compound is active in animal models of memory and cognition.

nAChR α7 = nAChR α7 (Rattus norvegicus, UniProt Q05941); experiment: Oocyte functional assay, two-electrode voltage clamp (Test C, FIG. 1); settings: in words; currents in oocytes expressing nAChR α7 (FIG. 1)
Experimental: Xenopus oocytes Xenopus laevis frogs (Xenopus I, Kalamazoo, Mich.) were anesthetized using 0.15% tricaine. Oocytes were removed to OR2 solution: (in mM) 82 NaCl, 2.5 KCl, 5 HEPES, 1.5 NaH2PO4, 1 MgCl2, 0.1 EDTA, pH 7.4. The oocytes were defolliculated by incubation in 25 mL OR2 containing 0.2% collagenase 1A (SIGMA) two times for 60 min on a platform vibrating at 1 Hz and stored in Leibovitz's L-15 medium. Oocytes were injected the following day. Leibovitz's L-15 medium contained 50 μg/mL gentomycin, 10 units/mL penicillin, and 10 μg/mL streptomycin.
Preparation and injection of cRNA Rat nAChR α7 was cloned in-house (Luhowskyj). Non-polyadenylated cRNA was prepared from cDNA using mMessage mMachine SP6 (Ambion) according to the manufacturer's instructions.
Recording The external recording solution consisted of (in mM) 90 NaCl, 1 KCl, 1 MgCl2, 1 BaCl2, 5 HEPES, pH 7.4. […] Oocytes were impaled with two electrodes of 1-2 MΩ tip resistance when filled with 3M KCl. Recordings were begun when membrane potential became stable at potentials negative to −20 mV. Membrane potential was clamped at −80 mV unless otherwise noted. ACh, (−) was purchased from SIGMA.
Calculation of current amplitude and curve fitting Current amplitude was measured from baseline to peak. EC50's, maximal effect, and Hill slopes were estimated by fitting the data to the logistic equation using GraphPad Prism (GraphPad Software, Inc. San Diego, Calif.)
Data are fit by the logistic equation.

α7 nAChR subtype = molecular target: T1, α7 nAChR subtype (Rattus norvegicus, UniProt Q05941); experiment: 125I-α-Bungarotoxin (BTX) binding to rat hippocampal membranes (Test A)
T1 construct: Rat hippocampi were homogenized in 20 volumes of cold homogenisation buffer; from tissue; host or cells: rat hippocampus membranes
Experimental: Test A—Assay for Affinity at α7 nAChR Subtype
Rat hippocampi were homogenized in 20 volumes of cold homogenisation buffer (HB): (in mM): tris(hydroxymethyl)aminomethane 50; MgCl2 1; NaCl 120; KCl 5: pH 7.4). The homogenate was centrifuged for 5 min at 1000 g, the supernatant was saved and the pellet re-extracted. The pooled supernatants were centrifuged for 20 min at 12000 g, washed, and re-suspended in HB.
(§1) Ki values were estimated using the general Cheng-Prusoff equation (A):
(§2) where a value of n=1 was used whenever nH<1.5 and a value of n−2 was used when nH≧1.5. Samples were assayed in triplicate and were typically ±5%. Ki values were determined using six or more drug concentrations.

5-HT3 = molecular target: T2, 5-HT3 (Rattus norvegicus, UniProt P35563); experiment: [3H]zacopride binding to rat small-bowel muscularis membranes (Test B); settings: 0.5 nM [3H]zacopride, read-out: Binding Affinity (Ki/nM) 5HT3
T2 construct: using rat small-bowel muscularis membranes suspended in 50 mM Tris; from tissue; host or cells: rat small-bowel muscularis membranes
T2 sequence (P35563 24-483): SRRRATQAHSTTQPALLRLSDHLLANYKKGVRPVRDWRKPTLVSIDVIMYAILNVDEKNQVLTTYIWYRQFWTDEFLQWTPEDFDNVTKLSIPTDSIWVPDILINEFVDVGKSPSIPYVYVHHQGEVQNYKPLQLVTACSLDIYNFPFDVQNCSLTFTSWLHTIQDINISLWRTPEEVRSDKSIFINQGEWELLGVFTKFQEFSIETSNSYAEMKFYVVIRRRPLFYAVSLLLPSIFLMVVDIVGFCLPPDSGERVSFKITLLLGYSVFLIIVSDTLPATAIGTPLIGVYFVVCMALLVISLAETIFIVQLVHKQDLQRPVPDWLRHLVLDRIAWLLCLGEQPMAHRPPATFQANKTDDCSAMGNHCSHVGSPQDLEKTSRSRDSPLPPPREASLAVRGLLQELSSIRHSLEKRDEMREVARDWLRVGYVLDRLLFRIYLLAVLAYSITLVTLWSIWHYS
Experimental: Test B—Assay for Affinity to the 5-HT3 nAChR Subtype
[^3]zacoipride binding. […] Incubation was continued for one hour.
Binding Data Analysis for Tests A and B
as §1, §2

[2] = complex spatial memory task, animal models; cited from earlier work
[3] = fibromyalgia patients treated with tropisetron; cited from earlier work

nAChR α7, sequence (Q05941 23-502): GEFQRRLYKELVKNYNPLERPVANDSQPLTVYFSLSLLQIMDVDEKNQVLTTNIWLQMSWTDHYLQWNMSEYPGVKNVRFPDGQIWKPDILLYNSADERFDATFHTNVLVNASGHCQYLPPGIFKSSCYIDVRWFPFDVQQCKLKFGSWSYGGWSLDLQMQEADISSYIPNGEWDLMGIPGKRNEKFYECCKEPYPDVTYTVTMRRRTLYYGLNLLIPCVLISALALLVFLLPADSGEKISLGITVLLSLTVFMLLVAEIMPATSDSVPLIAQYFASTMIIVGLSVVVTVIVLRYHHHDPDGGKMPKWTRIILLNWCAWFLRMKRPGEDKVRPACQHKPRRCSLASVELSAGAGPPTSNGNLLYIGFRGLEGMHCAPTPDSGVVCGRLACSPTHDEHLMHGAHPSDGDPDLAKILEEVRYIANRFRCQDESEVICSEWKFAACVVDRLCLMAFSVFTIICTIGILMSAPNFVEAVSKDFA
T1 sequence (Q05941 23-502): as above

Row | Structure (SMILES) | activity at the α7 receptor (nAChR α7) | antagonism of spatial navigation impairment [2] | further results
1 | O=C1NC[C@]2(CN3CCC2CC3)O1 [Compound 1, spiro[1-azabicyclo[2.2.2]octane-3,5′-oxazolidine-2′-one] | selective α7 agonist |  | activity in animal models of memory and cognition [1]: active
2 | O=C(NC1CN2CCC1CC2)c1cc(-c2ccccc2)cs1 (stereo not shown) [Compound 3, N-(1-azabicyclo[2.2.2]oct-3-yl)(4-phenylthiophene-2-carboxamide)] |  |  | Ki (α7 nAChR subtype): 1.6 nM; Ki (5-HT3): 20000 nM
3 | c1cnc2c(c1)C[C@@]1(CN3CCC1CC3)O2 [Compound 2, spiro[1-azabicyclo[2.2.2]octane-3,2′-(3′H)-furo[2,3-b]pyridine]] |  |  | Ki (α7 nAChR subtype; [125I]α-BTX 5 nM, rat hippocampal membranes, read-out: Binding Affinity (Ki/nM) α7): 14 nM
4 | Cc1nccn1CC1CCc2c(c3ccccc3n2C)C1=O (stereo not shown) [ondansetron] | lacked activity | not | 
5 | CN1[C@@H]2CC[C@H]1C[C@@H](OC(=O)c1c[nH]c3ccccc13)C2 [tropisetron] | potent and selective partial agonist | antagonize spatial navigation impairment | reduction in fibromyalgia symptoms [3]: statistically significant reduction in their symptoms
